Data as given in the supplement of paper PMC10307832.

Assays:
Assay in all cases: relative viability (nuclei count vs DMSO), 5 days (fraction); higher = more cells survive
Vorinostat + Navitoclax = compound: O=C(CCCCCCC(=O)Nc1ccccc1)NO [Vorinostat] + CC1(C)CCC(c2ccc(Cl)cc2)=C(CN2CCN(c3ccc(C(=O)NS(=O)(=O)c4ccc(N[C@H](CCN5CCOCC5)CSc5ccccc5)c(S(=O)(=O)C(F)(F)F)c4)cc3)CC2)C1 [Navitoclax] (partner 0.5 µM)
Summary of the method: (§1)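 Relative viability was taken as the ratio of nuclei in treated wells to nuclei in vehicle wells. Lung cancer cell lines in 1536-well plates received compounds by pin tool one day after seeding, either one drug alone or a fixed anchor-drug dose plus five library-drug doses (not always all listed) in √10 steps. Nuclei were counted on 4× images after 5 days of treatment, and values are medians of duplicate plates.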

Vorinostat + Pictilisib = compound: O=C(CCCCCCC(=O)Nc1ccccc1)NO [Vorinostat] + CS(=O)(=O)N1CCN(Cc2cc3nc(-c4cccc5[nH]ncc45)nc(N4CCOCC4)c3s2)CC1 [Pictilisib] (partner 1 µM)
Summary of the method: as §1

Vorinostat + Crizotinib = compound: O=C(CCCCCCC(=O)Nc1ccccc1)NO [Vorinostat] + C[C@@H](Oc1cc(-c2cnn(C3CCNCC3)c2)cnc1N)c1c(Cl)ccc(F)c1Cl [Crizotinib] (partner 1 µM)
Summary of the method: as §1

Vorinostat + Trametinib = compound: O=C(CCCCCCC(=O)Nc1ccccc1)NO [Vorinostat] + CC(=O)Nc1cccc(-n2c(=O)n(C3CC3)c(=O)c3c(Nc4ccc(I)cc4F)n(C)c(=O)c(C)c32)c1 [Trametinib] (partner 0.02 µM)
Summary of the method: as §1

Vorinostat + Luminespib = compound: O=C(CCCCCCC(=O)Nc1ccccc1)NO [Vorinostat] + CCNC(=O)c1noc(-c2cc(C(C)C)c(O)cc2O)c1-c1ccc(CN2CCOCC2)cc1 [Luminespib] (partner 0.01 µM)
Summary of the method: as §1

| Cell Line | relative viability (Vorinostat + Navitoclax; first compound 0.253 µM) | relative viability (Vorinostat + Navitoclax; first compound 0.8 µM) | relative viability (Vorinostat + Navitoclax; first compound 2.53 µM) | relative viability (Vorinostat + Navitoclax; first compound 8 µM) | relative viability (Vorinostat + Pictilisib; first compound 0.253 µM) | relative viability (Vorinostat + Pictilisib; first compound 0.8 µM) | relative viability (Vorinostat + Pictilisib; first compound 2.53 µM) | relative viability (Vorinostat + Pictilisib; first compound 8 µM) | relative viability (Vorinostat + Crizotinib; first compound 0.253 µM) | relative viability (Vorinostat + Crizotinib; first compound 0.8 µM) | relative viability (Vorinostat + Crizotinib; first compound 2.53 µM) | relative viability (Vorinostat + Crizotinib; first compound 8 µM) | relative viability (Vorinostat + Trametinib; first compound 0.253 µM) | relative viability (Vorinostat + Trametinib; first compound 0.8 µM) | relative viability (Vorinostat + Trametinib; first compound 2.53 µM) | relative viability (Vorinostat + Trametinib; first compound 8 µM) | relative viability (Vorinostat + Luminespib; first compound 0.253 µM) | relative viability (Vorinostat + Luminespib; first compound 0.8 µM) | relative viability (Vorinostat + Luminespib; first compound 2.53 µM) | relative viability (Vorinostat + Luminespib; first compound 8 µM) |
| --- | --- | --- | --- | --- | --- | --- | --- | --- | --- | --- | --- | --- | --- | --- | --- | --- | --- | --- | --- | --- |
| 201T | 1.24 | 1.25 | 1.2 | 0.472 | 0.741 | 0.605 | 0.522 | 0.313 | 1.12 | 1.03 | 1.02 | 0.317 | 0.734 | 0.735 | 0.69 | 0.267 | 1.1 | 1.09 | 0.82 | 0.281 |
| A-427 | 1.06 | 0.906 | 0.812 | 0.171 | 0.65 | 0.595 | 0.586 | 0.153 | 0.954 | 0.847 | 0.274 | 0.096 | 0.82 | 0.718 | 0.361 | 0.166 | 1.03 | 0.892 | 0.339 | 0.158 |
| ABC-1 | – | – | – | – | 0.981 | 0.509 | 0.168 | 0.118 | 1.11 | 0.383 | 0.131 | 0.0777 | – | – | – | – | 1.19 | 0.284 | 0.239 | 0.187 |
| BEN | 0.0469 | 0.0584 | 0.0602 | 0.0509 | 0.659 | 0.332 | 0.132 | 0.0393 | 1.06 | 0.553 | 0.147 | 0.0454 | 0.928 | 0.659 | 0.367 | 0.149 | 0.454 | 0.176 | 0.223 | 0.0986 |
| CAL-12T | 1.16 | 1.14 | 0.56 | 0.101 | 0.48 | 0.435 | 0.209 | 0.149 | 0.901 | 0.443 | 0.207 | 0.0708 | 0.433 | 0.499 | 0.223 | 0.0898 | 0.555 | 0.464 | 0.383 | 0.134 |
| COR-L23 | 1.13 | 0.503 | 0.0887 | 0.0849 | 0.728 | 0.451 | 0.0944 | 0.0511 | 0.542 | 0.25 | 0.0669 | 0.0606 | 0.79 | 0.447 | 0.159 | 0.0825 | 0.64 | 0.305 | 0.107 | 0.0643 |
| COR-L 105 | 0.741 | 0.58 | 0.257 | 0.234 | 0.438 | 0.261 | 0.262 | 0.201 | 0.65 | 0.383 | 0.221 | 0.199 | 0.546 | 0.542 | 0.343 | 0.288 | 0.968 | 0.892 | 0.646 | 0.219 |
| ChaGo-K-1 | 1.01 | 0.92 | 0.582 | 0.276 | 0.832 | 0.597 | 0.345 | 0.246 | 1.23 | 0.98 | 0.408 | 0.261 | 0.973 | 0.792 | 0.5 | 0.193 | 0.82 | 0.804 | 0.417 | 0.165 |
| EKVX | 0.955 | 1.13 | 0.588 | 0.143 | 0.475 | 0.441 | 0.21 | 0.103 | 0.958 | 0.891 | 0.428 | 0.152 | 0.401 | 0.337 | 0.18 | 0.115 | 0.984 | 0.952 | 0.659 | 0.17 |
| EMC-BAC-2 | 1.21 | 1.13 | 0.692 | 0.131 | 0.596 | 0.531 | 0.372 | 0.129 | 0.817 | 0.558 | 0.166 | 0.107 | 0.836 | 0.687 | 0.292 | 0.154 | 1.13 | 1.13 | 0.484 | 0.182 |
| EPLC-272H | 0.984 | 1 | 0.242 | 0.0967 | 0.309 | 0.227 | 0.212 | 0.145 | 0.875 | 0.774 | 0.346 | 0.178 | 0.296 | 0.269 | 0.168 | 0.11 | 0.497 | 0.195 | 0.273 | 0.158 |
| H3255 | 0.595 | 0.598 | 0.2 | 0.0872 | 0.599 | 0.574 | 0.318 | 0.183 | 1.02 | 0.817 | 0.411 | 0.225 | 0.819 | 0.709 | 0.576 | 0.227 | 0.743 | 0.808 | 0.602 | 0.315 |
| HARA | 1.17 | 1.16 | 0.606 | 0.086 | 0.483 | 0.447 | 0.132 | 0.102 | 1.15 | 0.932 | 0.136 | 0.0954 | 1.06 | 0.576 | 0.18 | 0.0921 | 0.693 | 0.689 | 0.118 | 0.053 |
| HCC-15 | 0.82 | 0.594 | 0.324 | 0.0877 | 0.811 | 0.608 | 0.472 | 0.108 | 0.919 | 0.879 | 0.496 | 0.0884 | 0.377 | 0.338 | 0.147 | 0.0834 | 0.526 | 0.565 | 0.361 | 0.148 |
| HCC-44 | 0.986 | 0.967 | 0.542 | 0.137 | 0.603 | 0.411 | 0.308 | 0.0904 | 0.728 | 0.783 | 0.224 | 0.0957 | 1.11 | 0.968 | 0.91 | 0.286 | 1.23 | 0.804 | 0.205 | 0.141 |
| HCC-78 | 0.711 | 0.324 | 0.15 | 0.116 | 0.25 | 0.128 | 0.117 | 0.134 | 0.319 | 0.229 | 0.117 | 0.137 | 0.774 | 0.495 | 0.201 | 0.181 | – | – | – | – |
